Patent US20110190324A1, “METHODS OF TREATING ATHEROSCLEROSIS” (priority 2008, published 2011)
“Also recorded” adds a separate entry of the source.

Legend:
Format in all cases: cell-based, human
[1] = system: HIF-1α protein; test: HIF-1α protein accumulation, western blot; conditions: foam cells; for Antagonism of adenosine induced HIF-1α protein accumulation: hypoxia, adenosine 100 μM, antagonist 100 nM
Description: Hypoxic exposures were done in a modular incubator chamber and flushed with a gas mixture containing 1% O2, 5% CO2 and balance N2 (MiniGalaxy, RSBiotech, Irvine, Scotland).
U937 cells were induced to differentiate into macrophages by treatment with phorbol myristate acetate (PMA, 40 nM) for 72 h. […] All dialyses were carried out with Pierce Slide-A-Lyzer cassettes (10,000 molecular wheight cut-off).
Whole cell lysates were prepared as described previously (27). […] In experiments aimed to detect HIF, western blot analyses were performed using antibody against HIF-1a (1:250 dilution) and HIF-1β (1:1000 dilution) in 5% non-fat dry milk in PBS/0.1% Tween-20 overnight at 4° C. The protein concentration was determined using BCA protein assay kit (Pierce, Rockford, Ill.). Tubulin (1:250) was used to ensure equal protein loading. Immunoreactivity was assessed and quantified by using a VersaDoc Imaging System (Bio-Rad).

[2] = system: VEGF; test: VEGF secretion by U937 derived foam cells, ELISA; conditions: 24 h, hypoxia, adenosine 100 μM, antagonist 100 nM
Description: (§1) U937 cells were induced to differentiate into macrophages by treatment with phorbol myristate acetate (PMA, 40 nM) for 72 h. Before use oxLDL was dialyzed against 1 L of 0.15 M sodium chloride and 0.3 mM EDTA (pH 7.4) for 12 h at 4° C., then against RPMI 1640 medium (two changes, 1 L/each change) for 24 h. All dialyses were carried out with Pierce Slide-A-Lyzer cassettes (10,000 molecular wheight cut-off). After dialysis, lipoproteins were sterilized by passing them through a 0.45 μm (pore-size) filter, then added (50-100 μg/mL, Intracel, Frederick, Md.) to PMA-treated U937 cells and incubated in serum-free RPMI 1640 for 48 h.
(§2) The levels of VEGF and IL-8 protein secreted by the cells in the medium were determined by VEGF and IL-8 ELISA kits (R&D Systems) according to the manufacturer's instructions. The data were presented as mean±SD from three independent experiments.

[3] = system: IL-8; test: IL-8 secretion by U937 derived foam cells, ELISA
Description: as §1, §2

[4] = system: foam cell formation from PMA-treated U937 cells; test: Oil red O staining, foam cell formation; conditions: oxLDL 50 μg/mL; for Effect on oxLDL and adenosine induced foam cells formation: adenosine 100 μM
Description: as §1
Treatment of PMA-differentiated U937 cells with test agents was performed 2 h before addition of oxLDL. After exposition to oxLDL under hypoxia for 24 h, U937 cells were fixed in phosphate buffered saline-buffered 4% paraformaldehyde solution for 15 min and then air dried. Oil red O (in 60% isopropanol) staining was done for 15 min essentially as described previously by Kalayoglu and Byrne (Infect. Immun., 66: 5067-5072, 1998). Cells were viewed under a bright-field microscope in 100× fields using a Nikon's Eclipse E800 microscope. Foam cells were defined as macrophages in which cytoplasm was filled with Oil red O-stainable lipid droplets.

CCNC(=O)[C@H]1O[C@@H](n2cnc3c(Nc4ccc(OCC(=O)Nc5ccccc5)cc4)ncnc32)[C@H](O)[C@@H]1O [1-deoxy-1-[6-{4-[(phenylcarbamoyl)-methoxy]phenylamino}-9H-purin-9-yl]-N-ethyl-β-D-ribofuranuronamide]
Induction of HIF-1α protein by adenosine receptor agonists ([1]; CHA 10, 100 nM, CGS 21680 500, 1000 nM, A2B agonist 10, 100 nM, CI-IB-MECA 10, 100 nM): able to induce HIF-1α protein

CCCn1c(=O)c2[nH]c(-c3cc(OCC(=O)Nc4ccc5c(c4)OCO5)nn3C)nc2n(CCC)c1=O [MRE-2029F20, N-benzo[1,3]dioxol-5-yl-2-[5-(1,3-dipropyl-2,6-dioxo-2,3,6,7-tetrahydro-1H-purin-8-yl)-1-methyl-1H-pyrazol-3-yl-oxy]-acetamide]
Reduction of adenosine induced VEGF increase [2]: strongly reduced | Block of the effect of the adenosine A2B receptor agonist (1 μM) on IL-8 secretion [3]: completely blocked | Block of adenosine induced IL-8 increase ([3]; hypoxia, adenosine 100 μM, antagonist 100 nM): blocked | Effect on oxLDL and adenosine induced foam cells formation ([4]; antagonist 100 nM): blocked the foam cells formation; also recorded: inhibition of foam cell formation | Antagonism of adenosine induced HIF-1α protein accumulation [1]: partially antagonized

CCCn1cc2c(nc(NC(=O)Nc3ccc(OC)cc3)n3nc(-c4ccco4)nc23)n1 [MRE-3008F20, 5-[[(4-methoxyphenyl)amino]carbonyl]amino-8-propyl-2-(2-furyl)-pyrazolo[4,3-e]-1,2,4-triazolo[1,5-c]pyrimidine]
Reduction of adenosine induced VEGF increase [2]: strongly reduced | Effect on oxLDL and adenosine induced foam cells formation ([4]; antagonist 100 nM): inhibition of foam cell formation; also recorded: blocked the foam cells formation | Antagonism of adenosine induced HIF-1α protein accumulation [1]: partially antagonized

Nc1nc2c(cnn2CCc2ccccc2)c2nc(-c3ccco3)nn12 [SCH 58261]
Reduction of adenosine induced VEGF increase [2]: inhibited to lesser extent | Antagonism of adenosine induced HIF-1α protein accumulation [1]: partially antagonized

COc1ccccc1NC(=O)Nc1nc(-c2cccnc2)nc2ccccc12 [VUF 5574]
Effect on oxLDL and adenosine induced foam cells formation ([4]; antagonist 10 nM): blocked the foam cells formation; also recorded: inhibition of foam cell formation

Nc1ncnc2c1ncn2[C@@H]1O[C@H](CO)[C@@H](O)[C@H]1O [adenosine]
Foam cells (Oil red O) on top of oxLDL ([4]; 24 h, 100 μM): increased
